Laboratory results reported in patent publication US20260297070A1, “CYCLIC [COMPOUND LEFT OUT] WRN INHIBITORS” (Nimbus Wadjet, Inc., priority 2023, published 2026).

target: T1, human Werner helicase (WRN-BV08, Uniprot Q14191, amino acids 517-1235 with L1074F point mutation) (Homo sapiens, UniProt Q14191, L1074F); assay: WRN (BV08) ADP-Glo Assay; format: biochemical; details: 0.15 nM WRN, 5 μM ATP, 0.1 nM DNA duplex, 15 min preincubation, 60 min at 25° C., pH 7.5, 1% DMSO; read-out: ADP-Glo_hWRN_IC50
T1 construct: Uniprot Q14191, amino acids 517-1235 with L1074F point mutation; TEV-cleavable 8×His (C, cleaved yes); made in house; host or cells: Sf9 insect cells (baculovirus)
T1 sequence (Q14191 with tags, fused parts or gaps L1074F limits assumed): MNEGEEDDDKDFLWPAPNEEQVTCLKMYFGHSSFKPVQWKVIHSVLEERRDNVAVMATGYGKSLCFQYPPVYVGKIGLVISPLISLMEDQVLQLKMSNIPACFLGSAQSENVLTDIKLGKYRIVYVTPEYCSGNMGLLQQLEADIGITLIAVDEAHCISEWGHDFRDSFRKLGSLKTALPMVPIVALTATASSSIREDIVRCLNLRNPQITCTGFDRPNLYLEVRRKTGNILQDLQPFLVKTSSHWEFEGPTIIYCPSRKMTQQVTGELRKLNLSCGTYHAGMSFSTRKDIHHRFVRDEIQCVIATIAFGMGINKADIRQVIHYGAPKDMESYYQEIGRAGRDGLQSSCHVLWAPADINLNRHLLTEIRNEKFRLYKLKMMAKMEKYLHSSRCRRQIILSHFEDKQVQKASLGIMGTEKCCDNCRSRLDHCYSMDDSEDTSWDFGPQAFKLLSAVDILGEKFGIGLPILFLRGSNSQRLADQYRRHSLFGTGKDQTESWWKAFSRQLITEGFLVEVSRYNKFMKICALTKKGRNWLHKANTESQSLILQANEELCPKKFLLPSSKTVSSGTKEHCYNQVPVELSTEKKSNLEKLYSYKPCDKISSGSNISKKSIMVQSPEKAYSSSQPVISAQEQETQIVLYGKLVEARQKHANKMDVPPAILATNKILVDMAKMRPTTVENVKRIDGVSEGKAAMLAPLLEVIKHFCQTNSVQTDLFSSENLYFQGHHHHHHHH
Summary of the method: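 Untagged WRN (Sf9-expressed, TEV-cleaved) at 0.15 nM was preincubated 15 min at 25 °C with compound, then reacted 60 min at 25 °C with 5 μM ATP and 0.1 nM DNA duplex in Bicine pH 7.5, 1 mM MgCl2. ADP-Glo luminescence gave % inhibition; IC50 by four-parameter fit.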

IC50 [µM] | SMILES
0.5 to 5 | COc1cc(CN(C(=O)Cc2ccc(C3CC3)cc2)C2C=CS(=O)(=O)C2)ccn1 (centres unmarked) [I-162, 2-(4-cyclopropylphenyl)-N-(1,1-dioxo-2,3-dihydro-1lambda6-thiophen-3-yl)-N-[(2-methoxypyridin-4-yl)methyl]acetamide]
5 to 10 | O=C(Cc1ccc(-n2cccc2)cc1)N(Cc1cccc(-n2cccn2)c1)C1C=CS(=O)(=O)C1 (centres unmarked) [I-232, N-(1,1-dioxo-2,3-dihydro-1lambda6-thiophen-3-yl)-N-{[3-(1H-pyrazol-1-yl)phenyl]methyl}-2-[4-(1H-pyrrol-1-yl)phenyl]acetamide]
10 to 50 | COc1cc(-c2ccc(F)cc2)ccc1CC(=O)N(Cc1ccncc1)C1C=CS(=O)(=O)C1 (centres unmarked) [I-345, N-(1,1-dioxo-2,3-dihydro-1lambda6-thiophen-3-yl)-2-{4′-fluoro-3-methoxy-[1,1′-biphenyl]-4-yl}-N-[(pyridin-4-yl)methyl]acetamide]
0.5 to 5 | COc1cc(CN(C(=O)Cc2ncc(-c3ccc(F)c(F)c3)cn2)C2C=CS(=O)(=O)C2)ccn1 (centres unmarked) [I-198, 2-[5-(3,4-difluorophenyl)pyrimidin-2-yl]-N-(1,1-dioxo-2,3-dihydro-1lambda6-thiophen-3-yl)-N-[(2-methoxypyridin-4-yl)methyl]acetamide]
> 50 | COc1cc(CN(C(=O)C(c2ccc(-c3ccc(F)c(F)c3)cc2F)n2cnnn2)[C@@H]2C=CS(=O)(=O)C2)ccn1 (stereo partly drawn) [I-734, N-[(3R)-1,1-dioxo-2,3-dihydro-1lambda6-thiophen-3-yl]-N-[(2-methoxypyridin-4-yl)methyl]-2-(1H-1,2,3,4-tetrazol-1-yl)-2-{3,3′,4′-trifluoro-[1,1′-biphenyl]-4-yl}acetamide]
< 0.5 | CC(O)(c1cc(CN(C(=O)Cn2cc(-c3cc(F)c(F)c(F)c3)cn2)C2C=CS(=O)(=O)C2)ccn1)C1CC1 (centres unmarked) [I-826, N-{[2-(1-cyclopropyl-1-hydroxyethyl)pyridin-4-yl]methyl}-N-(1,1-dioxo-2,3-dihydro-1lambda6-thiophen-3-yl)-2-[4-(3,4,5-trifluorophenyl)-1H-pyrazol-1-yl]acetamide]
> 50 | O=C(Cc1csc(-c2ccccc2)n1)N(Cc1ccncc1)C1C=CS(=O)(=O)C1 (centres unmarked) [I-547, N-(1,1-dioxo-2,3-dihydro-1lambda6-thiophen-3-yl)-2-(2-phenyl-1,3-thiazol-4-yl)-N-[(pyridin-4-yl)methyl]acetamide]
> 50 | COc1cc(CN(C(=O)Cc2ccc(-n3cccc3C)cc2F)[C@H]2C=CS(=O)(=O)C2)ccn1 [I-425, N-[(3S)-1,1-dioxo-2,3-dihydro-1lambda6-thiophen-3-yl]-2-[2-fluoro-4-(2-methyl-1H-pyrrol-1-yl)phenyl]-N-[(2-methoxypyridin-4-yl)methyl]acetamide]
0.5 to 5 | COc1cc(CN(C(=O)Cn2cc(-c3ccccc3F)cn2)C2C=CS(=O)(=O)C2)ccn1 (centres unmarked) [I-134, N-(1,1-dioxo-2,3-dihydro-1lambda6-thiophen-3-yl)-2-[4-(2-fluorophenyl)-1H-pyrazol-1-yl]-N-[(2-methoxypyridin-4-yl)methyl]acetamide]
0.5 to 5 | COc1cc(CN(C(=O)Cc2ccc(C3(C)CC3)cc2F)C2C=CS(=O)(=O)C2)ccn1 (centres unmarked) [I-97, N-(1,1-dioxo-2,3-dihydro-1lambda6-thiophen-3-yl)-2-[2-fluoro-4-(1-methylcyclopropyl)phenyl]-N-[(2-methoxypyridin-4-yl)methyl]acetamide]
0.5 to 5 | COc1cc(CN(C(=O)C(C)c2ccc(-n3cccc3)cc2)C2C=CS(=O)(=O)C2)ccn1 (centres unmarked) [I-212, N-(1,1-dioxo-2,3-dihydro-1lambda6-thiophen-3-yl)-N-[(2-methoxypyridin-4-yl)methyl]-2-[4-(1H-pyrrol-1-yl)phenyl]propanamide]

Continued, compound first:

SMILES | IC50 [µM]
O=C(Cc1ccc(-c2cccc(F)c2)cc1F)N(Cc1ccncc1)C1C=CS(=O)(=O)C1 (centres unmarked) [I-120, 2-{3,3′-difluoro-[1,1′-biphenyl]-4-yl}-N-(1,1-dioxo-2,3-dihydro-1lambda6-thiophen-3-yl)-N-[(pyridin-4-yl)methyl]acetamide] | 0.5 to 5
Cc1cc(-c2ccc(F)cc2)ccc1CC(=O)N(Cc1ccncc1)C1C=CS(=O)(=O)C1 (centres unmarked) [I-227, N-(1,1-dioxo-2,3-dihydro-1lambda6-thiophen-3-yl)-2-{4′-fluoro-3-methyl-[1,1′-biphenyl]-4-yl}-N-[(pyridin-4-yl)methyl]acetamide] | 5 to 10
N#CC1=CC(N(Cc2ccccc2)C(=O)Cc2ccc(-c3ccc(F)cc3)cc2)CS1(=O)=O (centres unmarked) [I-728, N-benzyl-N-(5-cyano-1,1-dioxo-2,3-dihydro-1lambda6-thiophen-3-yl)-2-{4′-fluoro-[1,1′-biphenyl]-4-yl}acetamide] | 0.5 to 5
CC(C)(O)c1cc(CN(C(=O)Cn2cc(-c3ccc(Cl)cc3)cn2)C2C=CS(=O)(=O)C2)ccn1 (centres unmarked) [I-58, 2-[4-(4-chlorophenyl)-1H-pyrazol-1-yl]-N-(1,1-dioxo-2,3-dihydro-1lambda6-thiophen-3-yl)-N-{[2-(2-hydroxypropan-2-yl)pyridin-4-yl]methyl}acetamide] | < 0.5
COc1cc(CN(C(=O)Cn2cc(-c3ccc(F)c(F)c3)cn2)[C@@H]2C=CS(=O)(=O)C2)ccn1 [I-598, 2-[4-(3,4-difluorophenyl)-1H-pyrazol-1-yl]-N-[(3R)-1,1-dioxo-2,3-dihydro-1lambda6-thiophen-3-yl]-N-[(2-methoxypyridin-4-yl)methyl]acetamide] | < 0.5
COc1cc(CN(C(=O)C2CNc3cc(-c4ccc(F)cc4)ccc32)C2C=CS(=O)(=O)C2)ccn1 (centres unmarked) [I-121, N-(1,1-dioxo-2,3-dihydro-1lambda6-thiophen-3-yl)-6-(4-fluorophenyl)-N-[(2-methoxypyridin-4-yl)methyl]-2,3-dihydro-1H-indole-3-carboxamide] | 0.5 to 5
COc1nccc(CN(C(=O)Cc2ccc(-n3cccc3C)cc2F)C2C=CS(=O)(=O)C2)n1 (centres unmarked) [I-112, N-(1,1-dioxo-2,3-dihydro-1lambda6-thiophen-3-yl)-2-[2-fluoro-4-(2-methyl-1H-pyrrol-1-yl)phenyl]-N-[(2-methoxypyrimidin-4-yl)methyl]acetamide] | 0.5 to 5
O=C(C1C2CN(CC(F)(F)F)CC21)N(Cc1ccncc1)C1C=CS(=O)(=O)C1 (centres unmarked) [I-618, N-(1,1-dioxo-2,3-dihydro-1lambda6-thiophen-3-yl)-N-[(pyridin-4-yl)methyl]-3-(2,2,2-trifluoroethyl)-3-azabicyclo[3.1.0]hexane-6-carboxamide] | > 50
COc1cc(CN(C(=O)Cn2cc(-c3cccc(F)c3)cn2)C2C=CS(=O)(=O)C2)ccn1 (centres unmarked) [I-54, N-(1,1-dioxo-2,3-dihydro-1lambda6-thiophen-3-yl)-2-[4-(3-fluorophenyl)-1H-pyrazol-1-yl]-N-[(2-methoxypyridin-4-yl)methyl]acetamide] | < 0.5
COc1ccc2c(c1)CCCC2C(=O)N(Cc1ccncc1)C1C=CS(=O)(=O)C1 (centres unmarked) [I-717, N-(1,1-dioxo-2,3-dihydro-1lambda6-thiophen-3-yl)-6-methoxy-N-[(pyridin-4-yl)methyl]-1,2,3,4-tetrahydronaphthalene-1-carboxamide] | > 50
COc1cc(CN(C(=O)Cc2ncc(-c3ccc(F)cc3)cc2F)C2C=CS(=O)(=O)C2)ccn1 (centres unmarked) [I-172, N-(1,1-dioxo-2,3-dihydro-1lambda6-thiophen-3-yl)-2-[3-fluoro-5-(4-fluorophenyl)pyridin-2-yl]-N-[(2-methoxypyridin-4-yl)methyl]acetamide] | 0.5 to 5
CC(C)(O)c1cc(CN(C(=O)Cc2ccc(S(F)(F)(F)(F)F)cc2F)C2C=CS(=O)(=O)C2)ccn1 (centres unmarked) [I-44, N-(1,1-dioxo-2,3-dihydro-1lambda6-thiophen-3-yl)-2-[2-fluoro-4-(pentafluoro-lambda6-sulfanyl)phenyl]-N-{[2-(2-hydroxypropan-2-yl)pyridin-4-yl]methyl}acetamide] | < 0.5
O=C(Cc1ccc(-n2cccc2)cc1)N(Cc1ccnc(OC(F)F)c1)C1C=CS(=O)(=O)C1 (centres unmarked) [I-215, N-{[2-(difluoromethoxy)pyridin-4-yl]methyl}-N-(1,1-dioxo-2,3-dihydro-1lambda6-thiophen-3-yl)-2-[4-(1H-pyrrol-1-yl)phenyl]acetamide] | 0.5 to 5
CC(C(=O)N(Cc1ccnc(C(C)(C)O)c1)[C@@H]1C=CS(=O)(=O)C1)n1cc(-c2cc(F)c(F)c(F)c2)cn1 (single isomer, unassigned) [I-789] | < 0.5
O=C(Cc1ccc(-n2cccc2)cc1)N(Cc1ccccc1Br)C1C=CS(=O)(=O)C1 (centres unmarked) [I-534, N-[(2-bromophenyl)methyl]-N-(1,1-dioxo-2,3-dihydro-1lambda6-thiophen-3-yl)-2-[4-(1H-pyrrol-1-yl)phenyl]acetamide] | > 50
CC(C)(O)c1cc(CN(C(=O)Cc2ccc(-c3ccc(Cl)cc3)cc2F)C2C=CS(=O)(=O)C2)ccn1 (centres unmarked) [I-180, 2-{4′-chloro-3-fluoro-[1,1′-biphenyl]-4-yl}-N-(1,1-dioxo-2,3-dihydro-1lambda6-thiophen-3-yl)-N-{[2-(2-hydroxypropan-2-yl)pyridin-4-yl]methyl}acetamide] | 0.5 to 5
N#CCOc1ccc(CC(=O)N(Cc2ccncc2)C2C=CS(=O)(=O)C2)cc1 (centres unmarked) [I-432, 2-[4-(cyanomethoxy)phenyl]-N-(1,1-dioxo-2,3-dihydro-1lambda6-thiophen-3-yl)-N-[(pyridin-4-yl)methyl]acetamide] | > 50
CC(C)(O)c1cc(CN(C(=O)C2Cc3cc(-c4ccc(F)cc4)ccc32)C2C=CS(=O)(=O)C2)ccn1 (centres unmarked) [I-223, N-(1,1-dioxo-2,3-dihydro-1lambda6-thiophen-3-yl)-3-(4-fluorophenyl)-N-{[2-(2-hydroxypropan-2-yl)pyridin-4-yl]methyl}bicyclo[4.2.0]octa-1,3,5-triene-7-carboxamide] | 5 to 10
